# Values of other authors, collected in PMC12308805, “Ultrahigh-Throughput Virtual Screening Strategies against PPI Targets: A Case Study of STAT Inhibitors” (Journal of Chemical Information and Modeling, 2025).
# Square brackets hold non-standard residues; d marks the D form. Peptide text beside a SMILES is read from it. * marks the point of attachment. d(pY) = N[C@H](Cc1ccc(OP(=O)(O)O)cc1)C(=O)O; pY = N[C@@H](Cc1ccc(OP(=O)(O)O)cc1)C(=O)O; Isobutyryl = CC(C)C(=O)*; Nle = CCCC[C@H](N)C(=O)O
# Tested on: STAT3
# Conditions: cited from earlier work
row,SMILES,Type (known STAT3 active)
1,CC(=O)N[C@@H](Cc1ccc(OP(=O)(O)O)cc1)C(=O)N[C@@H](CC(C)C)C(=O)N1CCC[C@H]1C(=O)N[C@@H](CCC(N)=O)C(=O)N[C@H](C(N)=O)[C@@H](C)O [CHEMBL382978] (Ac-[pY]LPQT-NH2),Active
2,CC(C)C[C@H](NC(=O)/C=C/c1ccc(OP(=O)(O)O)cc1)C(=O)N1CCC[C@H]1C(=O)N[C@H](C(=O)NCc1ccccc1)[C@@H](C)OC(N)=O [CHEMBL376795],Active
3,CC(C)C[C@H](NC(=O)/C=C/c1ccc(OP(=O)(O)O)cc1)C(=O)N1CCC[C@H]1C(=O)NCCCC(N)=O [CHEMBL573048],Active

# Same assay, conditions: sheet 6QHD_actives_decoys, retrospective screening set for STAT3 SH2 domain (PDB 6QHD); decoys are presumed inactives, not tested; ref DUD-E; cited from earlier work
row,SMILES,Type
1,COCCNC(=O)[C@@H](c1ccc(F)cc1)N(C(=O)c1snc(C(N)=O)c1N)c1ccc2c(c1)OCO2 [Decoy808],Inactive (Decoy)
2,COC(=O)[C@@H]1O[C@@H](O[C@@H]2CC[C@@]3(C)[C@@H](CC[C@H]4[C@H]3C(=O)C[C@@]3(C)[C@@H]4CC[C@]3(O)/C(COC(C)=O)=N/NC(N)=O)C2)[C@H](OC(C)=O)[C@@H](OC(C)=O)[C@@H]1OC(C)=O [Decoy959],Inactive (Decoy)
3,Cc1ccc(OCC(=O)NNC(=O)CCCCC(=O)NNC(=O)COc2ccc(C)cc2Br)c(Br)c1 [Decoy784],Inactive (Decoy)
4,CC(=O)OC[C@@H]1O[C@@H](Oc2cc(O)cc(O)c2C(=O)CCc2ccc([N+](=O)[O-])cc2)[C@@H](OC(C)=O)[C@H](OC(C)=O)[C@H]1OC(C)=O [Decoy880],Inactive (Decoy)
5,CCc1ccc2c(c1)[C@@]1(N[C@@H](Cc3ccc(O)c(O)c3)[C@H]3C(=O)N(CCc4ccc(OC)c(OC)c4)C(=O)[C@H]31)C(=O)N2 [Decoy902],Inactive (Decoy)
6,COc1ccc(OC[C@@H](O)Cn2c(C)c(C#N)c(=O)n(C[C@@H](O)COc3ccc(OC)cc3)c2=O)cc1 [Decoy738],Inactive (Decoy)
7,CCOc1ccc(-c2nn(-c3ccccc3)cc2C2C(C(=O)OCCOC)=C(C)NC(C)=C2C(=O)OCCOC)cc1C [Decoy832],Inactive (Decoy)
8,CNC(=O)[C@H](CC(C)C)NC(=O)[C@H](Cc1cnc[nH]1)NC(=O)[C@@H](C)NC(=O)[C@@H](NC(=O)[C@H](C)NC(=O)[C@H](Cc1c[nH]c2ccccc12)NC(=O)[C@H](Cc1cnc[nH]1)NC(=O)C(C)C)C(C)C [Decoy806] (Isobutyryl-HWAV[dA]HL-NHMe),Inactive (Decoy)
9,Cc1cccc(N(C(=O)c2snc(C(N)=O)c2N)[C@H](C(=O)NCCC(C)C)c2ccc(N(C)C)cc2)c1 [Decoy870],Inactive (Decoy)
10,O=C(O)CN(CC(=O)O)C[C@@H](Cc1ccc(NCCCCCN2C(=O)C=CC2=O)cc1)N(CC(=O)O)CC(=O)O [Decoy882],Inactive (Decoy)

# Same assay, conditions: sheet 6QHD_actives_decoys; known STAT3 actives of the retrospective screening set; ref ChEMBL / literature; cited from earlier work
row,SMILES,Type (known STAT3 active)
1,CC(C)C[C@H](NC(=O)/C=C/c1ccc(OP(=O)(O)O)cc1)C(=O)N1C[C@H]2C[C@H]2[C@H]1C(=O)N[C@@H](CCC(N)=O)[C@@H](C)OCc1ccccc1 [CHEMBL573443],Active
2,NC(=O)CC[C@H](NC(=O)[C@@H]1CC[C@@H]2CC[C@H](NC(=O)/C=C/c3ccc(OP(=O)(O)O)cc3)C(=O)N21)C(=O)NCc1ccccc1 [CHEMBL445970],Active
3,CC(C)C[C@H](NC(=O)[C@H](Cc1ccc(OP(=O)(O)O)cc1)NC(=O)CCc1ccccc1)C(=O)N1C[C@H]2C[C@H]2[C@H]1C(=O)N[C@@H](CCC(N)=O)C(=O)NCc1ccccc1 [CHEMBL370763],Active
4,CCCC[C@H](NC(=O)[C@H](Cc1ccc(OP(=O)(O)O)cc1)NC(C)=O)C(=O)N1CCC[C@H]1C(=O)N[C@@H](CCC(N)=O)C(=O)N[C@H](C(N)=O)[C@@H](C)O [CHEMBL197513] (Ac-[pY][Nle]PQT-NH2),Active
5,CC(=O)N[C@@H](Cc1ccc(OC(C(=O)O)C(=O)O)cc1)C(=O)N[C@@H](CC(C)C)C(=O)N1CCC[C@H]1C(=O)N[C@@H](CCC(N)=O)C(=O)N[C@H](C(=O)N[C@H](C(=O)O)C(C)C)[C@@H](C)O [CHEMBL231705],Active
6,CSCC[C@H](NC(=O)[C@H](C)NC(=O)[C@H](CCC(N)=O)NC(=O)[C@@H]1CCCN1C(=O)[C@@H](CCCN=C(N)N)NC(=O)[C@@H](Cc1ccc(OP(=O)(O)O)cc1)NC(C)=O)C(N)=O [CHEMBL345419] (Ac-[d(pY)][dR]PQAM-NH2),Active

# Same assay, conditions: sheet 6QHD_actives_decoys; retrospective screening set for STAT3 SH2 domain (PDB 6QHD); […]; ref DUD-E; cited from earlier work
row,SMILES,Type
1,O=c1c(C[C@@H](O)CN2CCOCC2)c(O)n(C[C@@H](O)CN2CCOCC2)c(=O)n1C[C@H](O)CN1CCOCC1 [Decoy568],Inactive (Decoy)
2,COc1ccccc1NS(=O)(=O)c1ccc(OC)c(NS(=O)(=O)c2ccc(C(=O)O)cc2)c1 [Decoy605],Inactive (Decoy)
3,COc1ccc(NC(=O)c2cc(C)nc3c2c(C)nn3C)cc1NS(=O)(=O)c1ccc(F)cc1 [Decoy619],Inactive (Decoy)
4,CCCCCC[C@H]1C(=O)O[C@@H](C)[C@@H](NC(=O)c2cccc(NC=O)c2O)C(=O)O[C@@H](C)[C@H]1OC(=O)CCC [Decoy385],Inactive (Decoy)
5,Cc1ccc(S(=O)(=O)NCCCCNS(=O)(=O)c2ccc(C)c([N+](=O)[O-])c2)cc1[N+](=O)[O-] [Decoy360],Inactive (Decoy)

# Same assay, conditions: sheet 6QHD_actives_decoys; retrospective screening set for STAT3 SH2 domain (PDB 6QHD); decoys generated with DUD-E and presumed inactive, not tested; ref DUD-E; cited from earlier work
row,SMILES,Type
1,CC(C)(C)OC(=O)N[C@H](CSSC[C@@H](NC(=O)OC(C)(C)C)C(=O)OC[C@H]1O[C@H](O)[C@@H](O)[C@@H](O)[C@H]1O)C(=O)OC[C@H]1O[C@H](O)[C@@H](O)[C@@H](O)[C@H]1O [Decoy536],Inactive (Decoy)
2,CCCCC(=O)Nc1ccc(NC(=S)NC(=O)c2ccc(OCC)c([N+](=O)[O-])c2)cc1OC [Decoy467],Inactive (Decoy)
3,COc1ccc(C(=O)O[C@H]2[C@@H]3C=CO[C@H](O[C@@H]4O[C@H](COC(C)=O)[C@@H](OC(C)=O)[C@H](OC(C)=O)[C@H]4OC(C)=O)[C@@H]3[C@](O)(COC(C)=O)[C@@H]2O)cc1 [Decoy373],Inactive (Decoy)
4,Cc1ccc(S(=O)(=O)OC[C@H](OS(=O)(=O)c2ccc(C)cc2)[C@H](O)[C@H](O)[C@@H](COS(=O)(=O)c2ccc(C)cc2)OS(=O)(=O)c2ccc(C)cc2)cc1 [Decoy424],Inactive (Decoy)
5,COc1cc(/C=N/NC(=O)CC(=O)N/N=C/c2cc(Br)c(O)c(OC)c2)cc(Br)c1O [Decoy510],Inactive (Decoy)
6,Cc1nn(Cc2ccc(Cl)cc2Cl)c(C)c1NC(=S)Nc1ccc(S(=O)(=O)Nc2ncccn2)cc1 [Decoy456],Inactive (Decoy)
7,COCCN(C/C(O)=N/c1nc(-c2ccc(Cl)cc2)cn1-c1ccc(OC)cc1)C(=O)C1CCCC1 [Decoy663],Inactive (Decoy)
8,CCN(CC)c1ccc(C(=O)OCC(=O)Nc2cccc(S(=O)(=O)/N=C3\CCCCCN3)c2)cc1 [Decoy504],Inactive (Decoy)
9,C=C[C@](C)(CC/C=C(\C)CC/C=C(\C)C[C@H](O)/C=C(\C)C(=O)O)O[C@@H]1O[C@H](CO)[C@@H](O)[C@H](O)[C@H]1O[C@@H]1O[C@H](CO)[C@@H](O)[C@H](O)[C@H]1O [Decoy689],Inactive (Decoy)
10,CC(=O)O[C@@H]1[C@@H](O)[C@@H](O[C@@H](/C=N\N2CCOCC2)[C@@H](CO)O[C@H](O)/C=N/N2CCOCC2)O[C@@H](CO)[C@H]1O [Decoy660],Inactive (Decoy)
11,C=CCn1c(CCCN2C(=O)c3cccc4cccc(c34)C2=O)nnc1SCC(=O)Nc1ccc(S(N)(=O)=O)cc1 [Decoy601],Inactive (Decoy)
12,COC(=O)CNC(=O)C[C@@](C)(O)CC(=O)O[C@H]1[C@@H](O)C[C@@]2(C)C3=C(CC[C@H]2C1(C)C)[C@@]1(C)CC[C@H]([C@H](CO)CC[C@H](O)C(C)(C)O)[C@]1(C)[C@@H](O)C3 [Decoy481],Inactive (Decoy)
13,CC(=O)O[C@@H]1[C@@H](O)[C@@H](O[C@@H](/C=N\C23CN4CN(CN(C4)C2)C3)[C@@H](CO)O[C@H](O)/C=N/C23CN4CN(CN(C4)C2)C3)O[C@@H](CO)[C@H]1O [Decoy408],Inactive (Decoy)
14,CC[C@H](c1nnnn1C[C@H]1CCCO1)N(Cc1ccc(C)cc1)Cc1cc2cc(OC)c(OC)cc2[nH]c1=O [Decoy698],Inactive (Decoy)
15,C=CCn1c(SCC(=O)Nc2sc(C(=O)OCC)c(C)c2C(=O)OCC)nc2sc3c(c2c1=O)CCCC3 [Decoy554],Inactive (Decoy)
16,COC(=O)CNC(=O)c1ccc(NC(=O)c2nc(NCc3ccco3)ncc2Cl)cc1 [Decoy529],Inactive (Decoy)
17,O=C[C@H](O)[C@@H](O)[C@H](O)[C@@H](CO)O[P@](=O)(OC[C@H]1O[C@@H](n2ccc(=O)[nH]c2=O)[C@H](O)[C@@H]1O)OP(=O)(O)O [Decoy701],Inactive (Decoy)
18,C[C@@H]1O[C@@H](O[C@H]2[C@H](O[C@@H]3CC[C@@H]4C(=CC[C@@H]5[C@@]4(C)C(=O)C[C@]4(C)[C@H]([C@@]6(C)O[C@H](C(C)(C)O)CC6=O)[C@H](O)C[C@@]54C)C3(C)C)O[C@H](CO)[C@@H](O)[C@@H]2O)[C@H](O)[C@H](O)[C@H]1O [Decoy472],Inactive (Decoy)
19,CC(=O)O[C@H]1[C@@H](O)[C@@H](O[C@@H](/C=N/c2ccc3c(c2)C(=O)NC3=O)[C@@H](CO)O[C@H](O)/C=N/c2ccc3c(c2)C(=O)NC3=O)O[C@@H](CO)[C@H]1O [Decoy463],Inactive (Decoy)
20,CCOC(=O)CNC(=O)[C@H](c1ccc(O)cc1)N(C(=O)c1snc(C(N)=O)c1N)c1ccccc1CC [Decoy513],Inactive (Decoy)
21,CC[C@@H](c1nnnn1CCOC)N(CCc1ccc(OC)c(OC)c1)Cc1cc2c(C)cc(C)cc2[nH]c1=O [Decoy616],Inactive (Decoy)
22,CCOC(=O)c1[nH]c(C)c(C(=O)C2=C(O)C(=O)N(CCN(CC)CC)[C@H]2c2ccc(OC)c(OC)c2)c1C [Decoy455],Inactive (Decoy)
23,COc1ccc(C(=O)NCCc2nnc3ccc(SCC(=O)Nc4ccc(OC(F)(F)F)cc4)nn23)cc1 [Decoy531],Inactive (Decoy)
24,CC(=O)OC[C@@H](OC(C)=O)[C@H](OC(C)=O)[C@H](OC(C)=O)[C@H](OC(C)=O)[C@@H]1N[C@H](C(=O)O)C(C)(C)S1 [Decoy590],Inactive (Decoy)
25,COc1cc(-c2c(-c3cc(Br)c(O)c(OC)c3)oc(/C=N/NC(=O)C[N+](C)(C)C)c2[N+](=O)[O-])cc(Br)c1[O-] [Decoy556],Inactive (Decoy)
